Test results published in US4789736A, “Complexes of technetium-99m with propylene amine oximes” (Amersham International plc, priority 1985, dated 1988).
Entries after “also recorded” stand apart in the source; their conditions may differ.

Assays:
[1] = Blood clearance in human volunteers; assay type: in vivo, human volunteer subjects; conditions: for % id in blood: unseparated dl/meso mixture, human
From the text: (§1) The following data allows comparison of the relative performance of the complexes of compounds 1 and 2 (an unseparated dl/meso mixture in each case) in human volunteer subjects.

[2] = Whole body distribution in human volunteers; assay type: in vivo, human volunteer subjects; conditions: unseparated dl/meso mixture; for Whole body distribution, Bladder / Whole body distribution, Brain / Whole body distribution, Liver: 2 hrs p.i., human
From the text: as §1
(ii) Whole body distribution

[3] = tested on: leucocytes; test: In vitro labelling of leucocytes; assay type: cell-based; conditions: ambient temperature
Procedure: A solution of the technetium-99m complex of compound 1 was made as follows. A vial contained 0.5 mg compound 1; […] stannous chloride dihydrate; and 4.5 mg sodium chloride; freeze-dried and sealed under nitrogen. To this was added 5.0 ml of sodium pertechnetate eluate from a 135mCi technetium generator.
Mixed leucocytes were obtained from 34 ml of acid citrate anticoagulated blood by dextran sedimentation. These were washed twice and resuspended in 2.0 ml phosphate buffered saline containing approximately 0.25 mg/ml prostaglandin El. The suspension was incubated with 0.2 ml of the solution of the technetium-99m complex of compound 1. Incubation was at ambient temperature, and samples were removed at intervals for analysis. After two minutes, 60% of the radioactivity was associated with blood cells; after 5 minutes, 83% and after 10 minutes, 89%.

[4] = Animal biodistribution of Tc-99m complexes of ligands, no separation of stereoisomers (Example 22); assay type: in vivo, rats; conditions: for % id/organ, Blood / % id/organ, Brain / % id/organ, Heart / % id/organ, Liver: i.v. rats, mean of 3 animals
Procedure: The ratio of diastereoisomers in the Tc-99m complexes used in this experiment is not known.
The results at 2 minutes and 1 hour p.i. are the mean of 3 animals.
The results at 2 hours p.i. are the mean of 2 animals.

[5] = Rat biodistribution of Tc-99m complexes from isolated stereoisomers (Example 24); conditions: d- versus l-enantiomer; rats
Procedure: 0.1 ml of the Tc-99m complex solution was administered by intravenous injection (lateral tail vein) to each of five or six rats (140-220 g). The injected dose was equivalent to approximately 1 mCi of Tc-99m. Three rats were sacrificed at 2 minutes post injection, and 3 at 1 hour or 2 at 2 hours post injection. At dissection, the organs and blood samples shown in the following table were taken, and assayed for radioactivity. The uptake in each organ or tissue was calculated as a percentage of the total activity recovered.
Data in Tables (a) and (b) are the mean from 3 animals at each time point.

[6] = Tomographic imaging of the brain in man; assay type: in vivo, normal volunteers (human); conditions: in words; unseparated dl/meso mixture; human
Procedure: Tomographic images of the brain were determined using the same complexes in normal volunteers. The device used was a single head rotating gamma camera and minicomputer system. 64 25-second images were accumulated by the gamma camera during 360° circular rotation of the head and shoulders of the volunteer.

[7] = Clinical comparison of dl and meso diastereoisomers of Compound 1, whole body scanning (Example 25a); assay type: in vivo, normal volunteer subjects (human); conditions: 20 minutes p.i.; mean; human
Procedure: All clinical studies, involving comparisons between the Tc-99m complexes of dl and meso, and d,l and dl stereoisomers of Compound 1 were conducted in normal volunteer subjects at Aberdeen Royal Infirmary.
(a) Comparison of dl and meso diastereoisomers of Compound 1
Data is then taken from area of interest studies employing a whole body scanning device.

[8] = In vitro stability of Tc-99m complexes (radiochemical purity by thin layer chromatography); assay type: physicochemical; conditions: for remaining at 2 min: 2 min post formation; for remaining at 2 min / remaining at 1 h / remaining at 2 h: dl/meso mixture, read-out: % of the desired Tc-99m complex; for remaining at 1 h: 60 min post formation; for remaining at 2 h: 120 min post formation; for in vitro stability of the Tc-99m complex: in words, complex of compound 1 versus compound 2
Procedure: Glass fibre strips impregnated with silica gel form the stationary phase of a fast and accurate analytical system. Two strips, each measuring 20 cm×2 cm were used in each analysis. Approximately five microliters of the solution containing the complex was applied 1 cm from the base of each strip, and one strip developed with saline, the other with methylethylketone (MEK).
Determination of the distribution of radioactivity along each strip was conducted by means of a 100 channel analysis system interfaced to a Nova computer, programmed for peak integration. The Table below indicates the RF values of the major components of the Tc-99m solutions. The observed radiochemical purity of the Tc-99m complexes was generally greater than 80%.
Radiochemical purity determinations by thin layer chromatography were carried out at several time points following formation of the technetium complexes of compounds 1 and 2 (a dl/meso mixture in each case) to determine the stability of the complexes.

## CC(=NO)C(C)NCC(C)(C)CNC(C)C(C)=NO (racemic) [Compound 1, 4,8-diaza-3,6,6,9-tetramethylundecane-2,10-dione bis oxime]
[1]; 14 minutes post injection
  % id in blood: 9.54 % id
[1]; 40 minutes post injection
  % id in blood: 7.73 % id
[1]; 60 minutes post injection
  % id in blood: 6.38 % id
[1]; 250 minutes post injection
  % id in blood: 5.26 % id
[2]
  Whole body distribution, Bladder: 3.9
  Whole body distribution, Brain: 3.70
  Whole body distribution, Liver: 23.35
[2]; in words
  removal of radioactivity from brain in humans: Slow removal of radioactivity from brain
  uptake in the brain of humans: Good uptake in the brain
[3]; after 5 minutes
  radioactivity associated with blood cells: 83%
[3]; after 10 minutes
  radioactivity associated with blood cells: 89%
[3]; after two minutes
  radioactivity associated with blood cells: 60%
[4]; 2 min pi
  % id/organ, Blood: 16.7 % id/organ
  % id/organ, Brain: 1.5 % id/organ
  % id/organ, Heart: 0.4 % id/organ
  % id/organ, Liver: 8.4 % id/organ
[4]; 1 hr pi
  % id/organ, Blood: 19.6 % id/organ
  % id/organ, Brain: 1.2 % id/organ
  % id/organ, Heart: 0.2 % id/organ
  % id/organ, Liver: 5.4 % id/organ
[4]; in words, unseparated dl/meso mixture
  uptake in the brain of rats: Good uptake in the brain
[5]
  difference in brain uptake of the d- and l-enantiomers (factor): 1.6
[6]
  quality of tomographic images of the brain: Good quality tomographic images of the brain
[7]
  % injected activity, Bladder + Urine: 1.4 % injected activity
  % injected activity, Brain: 1.95 % injected activity
  % injected activity, Kidneys: 1.95 % injected activity
  % injected activity, Liver: 13.0 % injected activity
[8]
  remaining at 2 min: 92%
  remaining at 1 h: 87%
  remaining at 2 h: 79%
  in vitro stability of the Tc-99m complex: only slow in vitro degradation

## CC(=NO)C(C)NCCCNC(C)C(C)=NO (racemic) [Compound 2, 4,8-Diaza-3,9-dimethylundecane-2,10-dione bis oxime]
[1]; 14 minutes post injection
  % id in blood: 11.06 % id
[1]; 40 minutes post injection
  % id in blood: 6.9 % id
[1]; 60 minutes post injection
  % id in blood: 5.93 % id
[1]; 250 minutes post injection
  % id in blood: 3.98 % id
[1]; in words, compound 1 versus complex of compound 2
  blood and tissue background clearance of activity in humans: Better blood and tissue background clearance
[2]
  Whole body distribution, Bladder: 21.02
  Whole body distribution, Brain: 3.48
  Whole body distribution, Liver: 13.21
[4]; 2 min pi
  % id/organ, Blood: 14.6 % id/organ
  % id/organ, Brain: 1.6 % id/organ
  % id/organ, Heart: 0.5 % id/organ
  % id/organ, Liver: 10.9 % id/organ
[4]; 1 hr pi
  % id/organ, Blood: 12.4 % id/organ
  % id/organ, Brain: 1.4 % id/organ
  % id/organ, Heart: 0.5 % id/organ
  % id/organ, Liver: 4.9 % id/organ
[6]
  quality of tomographic images of the brain: less good, due to a higher level of background radiation
[8]
  remaining at 2 min: 82%
  remaining at 1 h: 60%
  remaining at 2 h: 47%
  in vitro stability of the Tc-99m complex: greatly inferior to that of the complex of compound 1; also recorded: Far better in vitro stability; also recorded: rapid in vitro degradation
[8]; at all times
  percent of the Tc-99m not in the form of the complex, Compound 2 relative to Compound 1: more than twice as great
